Experimental data: patent publication US20190233884A1 (University of Southern California, priority 2016, published 2019)

Tested on: patients with refractory metastatic colorectal cancer (mCRC)
Assay: PFS, OS and disease control in the training (evaluation) cohort of refractory mCRC patients receiving TAS-102 (n=52, Japan), by baseline characteristics, SNP genotype and toxicity
Type: in vivo, human
Settings: evaluation cohort
Description: All patients underwent the treatment in salvage-line setting. […]
Genomic DNA was extracted from peripheral whole blood in patients of all cohorts using the QIAmp Kit (Qiagen, Valencia, Calif., USA) according to the manufacturer's protocol (www.qiagen.com). The candidate SNPs were genotyped using PCR-based direct DNA sequence analysis by ABI 3100A Capillary Genetic Analyzer and Sequencing Scanner v1.0 (Applied Biosystems). Amplification of extracted DNA was carried out using both forward and reverse primers for each gene polymorphism as shown in Table 1. […] The investigators analyzing SNPs were blinded to the clinical data of the study patients.
The primary endpoint in this study was progression-free survival (PFS), and the secondary endpoints were overall survival (OS) and disease control rate (DCR). PFS was calculated from the date of starting treatment to the first observation of disease progression or death from any cause. If a patient had no disease progression or death, PFS was censored at the date of last follow up. OS was calculated from the date of starting treatment until the date of death from any cause or the date of the last follow-up, at which point OS was censored. The disease control rate (DCR) was defined as the proportion of patients who achieved a stable disease (SD) or […] according to RECISTv1.1. Chi-square test was used to examine the difference in baseline patient characteristics among the three cohorts. Allelic distribution of all SNPs by ethnicity for deviation from Hardy-Weinberg equilibrium and the allelic frequencies of SNPs were tested using the Chi-square tests with one degree of freedom. The associations between candidate SNPs and disease control, and toxicities were examined using contingency tables and Fisher's exact test. The associations of SNPs with PFS and OS were analysed using Kaplan-Meier curves and the log-rank test. Because the true mode of inheritance of candidate SNPs was not established yet, a codominant or dominant genetic model if appropriate was considered.
All patients underwent the treatment in salvage-line setting. […] In all patients, adverse events were graded according to the Common Terminology Criteria for Adverse Events, version 4.0. […]
Genomic DNA was extracted from peripheral whole blood in patients of all cohorts using the QIAmp Kit (Qiagen, Valencia, Calif., USA) according to the manufacturer's protocol (www.qiagen.com). The candidate SNPs were tested using PCR-based direct DNA sequence analysis by ABI 3100A Capillary Genetic Analyzer and Sequencing Scanner v1.0 (Applied Biosystems). […] The investigators analyzing SNPs were blinded to the clinical data.
The primary endpoint in this study was progression-free survival (PFS), and the secondary endpoints were overall survival (OS) and disease control rate (DCR).

[1] = CHEK2 rs2267130 Any C vs T/T (Ref.), multivariable
[2] = CHEK2 rs2267130 Any C vs T/T (Ref.), univariate
[3] = CHEK2 rs2267130 C/C vs T/T (Ref.), multivariable
[4] = CHEK2 rs2267130 C/C vs T/T (Ref.), univariate
[5] = CHEK2 rs2267130 T/C vs T/T (Ref.), multivariable
[6] = CHEK2 rs2267130 T/C vs T/T (Ref.), univariate
[7] = Che1 rs1564796 T/C and C/C grouped together
[8] = FANCD2 rs6792811 G/A and G/G grouped together

Trifluridine/tipiracil [TAS-102]
PD, patients n (%) (BRCA1 rs16941 T/C): 15 (68%)
Disease Control Rate SD, patients n (%) (BRCA1 rs16941 T/T): 7 (37%)
PD, patients n (%) (BRCA1 rs16941 T/T): 12 (63%)
Disease Control Rate SD, patients n (%) (BRCA1 rs799917 A/A): 1 (20%)
PD, patients n (%) (BRCA1 rs799917 A/A): 4 (80%)
Disease Control Rate SD, patients n (%) (BRCA1 rs799917 Any A): 8 (30%)
PD, patients n (%) (BRCA1 rs799917 Any A): 19 (70%)
Disease Control Rate SD, patients n (%) (BRCA1 rs799917 G/A): 7 (32%)
PD, patients n (%) (BRCA1 rs799917 G/A): 15 (68%)
Disease Control Rate SD, patients n (%) (BRCA1 rs799917 G/G): 7 (37%)
PD, patients n (%) (BRCA1 rs799917 G/G): 12 (63%)
Disease Control Rate SD, patients n (%) (BRCA2 rs144848 A/A): 8 (29%)
PD, patients n (%) (BRCA2 rs144848 A/A): 20 (71%)
Disease Control Rate SD, patients n (%) (BRCA2 rs144848 A/C): 6 (46%)
PD, patients n (%) (BRCA2 rs144848 A/C): 7 (54%)
Disease Control Rate SD, patients n (%) (BRCA2 rs144848 Any C): 7 (39%)
PD, patients n (%) (BRCA2 rs144848 Any C): 11 (61%)
Disease Control Rate SD, patients n (%) (BRCA2 rs144848 C/C): 1 (20%)
PD, patients n (%) (BRCA2 rs144848 C/C): 4 (80%)
Disease Control CR/PR/SD, patients n (%) (CHEK2 rs2267130 Any C): 12 (46%)
Median OS (95% CI) (CHEK2 rs2267130 Any C): 8.3 (5.7, 15.6+) months
Median PFS (95% CI) (CHEK2 rs2267130 Any C): 3.4 (2.1, 4.6) months
PD, patients n (%) (CHEK2 rs2267130 Any C): 14 (54%)
HR OS (95% CI) [1]: 0.71 (0.29, 1.77)
HR PFS (95% CI) [1]: 0.49 (0.26, 0.94)
HR OS (95% CI) [2]: 0.71 (0.29, 1.74)
HR PFS (95% CI) [2]: 0.48 (0.25, 0.90)
Disease Control CR/PR/SD, patients n (%) (CHEK2 rs2267130 C/C): 3 (43%)
Median OS (95% CI) (CHEK2 rs2267130 C/C): 5.7 (1.4, 10.7+) months
Median PFS (95% CI) (CHEK2 rs2267130 C/C): 2.7 (0.9, 4.6+) months
PD, patients n (%) (CHEK2 rs2267130 C/C): 4 (57%)
HR OS (95% CI) [3]: 1.31 (0.39, 4.42)
HR PFS (95% CI) [3]: 0.59 (0.23, 1.51)
HR OS (95% CI) [4]: 1.21 (0.37, 3.99)
HR PFS (95% CI) [4]: 0.62 (0.25, 1.58)
Disease Control CR/PR/SD, patients n (%) (CHEK2 rs2267130 T/C): 9 (47%)
Median OS (95% CI) (CHEK2 rs2267130 T/C): 12.4 (6.3, 15.6+) months
Median PFS (95% CI) (CHEK2 rs2267130 T/C): 3.7 (2.1, 5.2) months
PD, patients n (%) (CHEK2 rs2267130 T/C): 10 (53%)
HR OS (95% CI) [5]: 0.56 (0.20, 1.55)
HR PFS (95% CI) [5]: 0.46 (0.22, 0.94)
HR OS (95% CI) [6]: 0.59 (0.22, 1.60)
HR PFS (95% CI) [6]: 0.44 (0.22, 0.89)
Disease Control CR/PR/SD, patients n (%) (CHEK2 rs2267130 T/T): 3 (15%)
Median OS (95% CI) (CHEK2 rs2267130 T/T): 8.1 (4.4, 8.7+) months
Median PFS (95% CI) (CHEK2 rs2267130 T/T): 2.1 (1.6, 2.9) months
PD, patients n (%) (CHEK2 rs2267130 T/T): 17 (85%)
PFS (CHEK2 rs2267130 T/T): 2.1 months
Disease Control Rate SD, patients n (%) (CHEK2 rs22236142 Any C): 7 (27%)
PD, patients n (%) (CHEK2 rs22236142 Any C): 19 (73%)
Disease Control Rate SD, patients n (%) (CHEK2 rs22236142 C/C): 2 (25%)
PD, patients n (%) (CHEK2 rs22236142 C/C): 6 (75%)
Disease Control Rate SD, patients n (%) (CHEK2 rs22236142 G/C): 5 (28%)
PD, patients n (%) (CHEK2 rs22236142 G/C): 13 (72%)
Disease Control Rate SD, patients n (%) (CHEK2 rs22236142 G/G): 8 (40%)
PD, patients n (%) (CHEK2 rs22236142 G/G): 12 (60%)
Disease Control Rate SD, patients n (%) (Che1 rs1045056 T/C): 2 (22%)
PD, patients n (%) (Che1 rs1045056 T/C): 7 (78%)
Disease Control Rate SD, patients n (%) (Che1 rs1045056 T/T): 13 (35%)
PD, patients n (%) (Che1 rs1045056 T/T): 24 (65%)
Disease Control Rate SD, patients n (%) [7]: 3 (25%)
PD, patients n (%) [7]: 8 (67%)
Disease Control Rate SD, patients n (%) (Che1 rs1564796 T/T): 12 (34%)
PD, patients n (%) (Che1 rs1564796 T/T): 23 (66%)
Disease Control Rate SD, patients n (%) (FANCD2 rs2272125 T/G): 3 (50%)
PD, patients n (%) (FANCD2 rs2272125 T/G): 3 (50%)
Disease Control Rate SD, patients n (%) (FANCD2 rs2272125 T/T): 12 (30%)
PD, patients n (%) (FANCD2 rs2272125 T/T): 28 (70%)
Disease Control Rate SD, patients n (%) (FANCD2 rs6792811 A/A): 10 (33%)
PD, patients n (%) (FANCD2 rs6792811 A/A): 20 (67%)
Disease Control Rate SD, patients n (%) [8]: 5 (29%)
PD, patients n (%) [8]: 11 (71%)
Disease Control Rate SD, patients n (%) (PCNA rs25406 A/A): 4 (36%)
PD, patients n (%) (PCNA rs25406 A/A): 7 (64%)
Disease Control Rate SD, patients n (%) (PCNA rs25406 Any A): 12 (44%)
PD, patients n (%) (PCNA rs25406 Any A): 15 (56%)
Disease Control Rate SD, patients n (%) (PCNA rs25406 G/A): 8 (50%)
PD, patients n (%) (PCNA rs25406 G/A): 8 (50%)
Disease Control Rate SD, patients n (%) (PCNA rs25406 G/G): 3 (19%)
PD, patients n (%) (PCNA rs25406 G/G): 13 (81%)
Disease Control Rate SD, patients n (%) (Pin1 rs2233678 G/C): 0%
PD, patients n (%) (Pin1 rs2233678 G/C): 2 (100%)
Disease Control Rate SD, patients n (%) (Pin1 rs2233678 G/G): 15 (34%)
PD, patients n (%) (Pin1 rs2233678 G/G): 29 (66%)
Disease Control Rate SD, patients n (%) (Pin1 rs2233679 Any T): 11 (38%)
PD, patients n (%) (Pin1 rs2233679 Any T): 18 (62%)
Disease Control Rate SD, patients n (%) (Pin1 rs2233679 C/C): 4 (24%)
PD, patients n (%) (Pin1 rs2233679 C/C): 13 (76%)
Disease Control Rate SD, patients n (%) (Pin1 rs2233679 C/T): 8 (36%)
PD, patients n (%) (Pin1 rs2233679 C/T): 14 (64%)
Disease Control Rate SD, patients n (%) (Pin1 rs2233679 T/T): 3 (43%)
